Where “and” joins values, the source holds several entries; their conditions need not be identical. Equal values may be shown once. Inconclusive results and toxic doses are left out. Rule as the data show it: active = T/C of 150% or more; inactive = T/C below 125%.
Test system: L1210 leukemia ip in BDF1 mice, survival T/C
Assay: NCI In Vivo Anticancer Drug Screen. Data for tumor model L1210 Leukemia (intraperitoneal) in B6D2F1 (BDF1) mice
Details: endpoint: mean survival time, higher = longer survival
How it was run: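 Transplantable tumor model; survival measured in treated vs vehicle control mice. Value = treated/control.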

[1] = dose: 75.0 mg/kg/injection, schedule: Q01DX001 (ip), vehicle: saline
[2] = dose: 100.0 mg/kg/injection, schedule: Q01DX009 (ip), vehicle: Klucel (hydroxypropylcellulose) (HPC)
[3] = dose: 200.0 mg/kg/injection, schedule: Q01DX009 (ip), vehicle: Klucel (hydroxypropylcellulose) (HPC)
[4] = dose: 400.0 mg/kg/injection, schedule: Q01DX009 (ip), vehicle: Klucel (hydroxypropylcellulose) (HPC)
[5] = dose: 100.0 mg/kg/injection, schedule: Q04DX002 (ip), vehicle: saline with Tween-80
[6] = dose: 100.0 mg/kg/injection, schedule: Q01DX009 (ip), vehicle: saline with Tween-80
[7] = dose: 100.0 mg/kg/injection, schedule: Q01DX009 (ip), vehicle: saline
[8] = dose: 200.0 mg/kg/injection, schedule: Q01DX009 (ip), vehicle: saline
[9] = dose: 100.0 mg/kg/injection, schedule: Q04DX003 (ip), vehicle: Klucel (hydroxypropylcellulose) (HPC)
[10] = dose: 200.0 mg/kg/injection, schedule: Q04DX003 (ip), vehicle: Klucel (hydroxypropylcellulose) (HPC)
[11] = dose: 400.0 mg/kg/injection, schedule: Q04DX003 (ip), vehicle: Klucel (hydroxypropylcellulose) (HPC)

Measured: T/C

CCCC(C)C1(CC)C(=O)NC(=O)NC1=O (centres undefined)
inactive: dose: 20.0 mg/kg/injection, schedule: Q01DX001 (ip), vehicle: saline 97 % of control | dose: 20.0 mg/kg/injection, schedule: Q04DX003 (ip), vehicle: saline 93 % of control | dose: 40.0 mg/kg/injection, schedule: Q01DX001 (ip), vehicle: saline 103 % of control | dose: 40.0 mg/kg/injection, schedule: Q04DX003 (ip), vehicle: saline 98 % of control | [1] 107 % of control | dose: 80.0 mg/kg/injection, schedule: Q01DX001 (ip), vehicle: saline 108 % of control | dose: 80.0 mg/kg/injection, schedule: Q04DX003 (ip), vehicle: saline 97 % of control | dose: 160.0 mg/kg/injection, schedule: Q01DX001 (ip), vehicle: saline 108 % of control

Cc1ccc(C(=O)/C=C/c2ccco2)c(C)c1
inactive: dose: 100.0 mg/kg/injection, schedule: Q04DX002 (ip), vehicle: Klucel (hydroxypropylcellulose) (HPC) 99 % of control | dose: 200.0 mg/kg/injection, schedule: Q04DX002 (ip), vehicle: Klucel (hydroxypropylcellulose) (HPC) 86 % of control | dose: 400.0 mg/kg/injection, schedule: Q04DX002 (ip), vehicle: Klucel (hydroxypropylcellulose) (HPC) 99 % of control

CC[n+]1csc2ccccc21
inactive: [1] 102 % of control | dose: 150.0 mg/kg/injection, schedule: Q01DX001 (ip), vehicle: saline 105 % of control | dose: 300.0 mg/kg/injection, schedule: Q01DX001 (ip), vehicle: saline 97 % of control

O=C(C[n+]1ccc2ccccc2c1)c1ccc([N+](=O)[O-])cc1
inactive: dose: 12.5 mg/kg/injection, schedule: Q04DX003 (ip), vehicle: saline 101 % of control | dose: 25.0 mg/kg/injection, schedule: Q04DX003 (ip), vehicle: saline 103 % of control | dose: 50.0 mg/kg/injection, schedule: Q04DX003 (ip), vehicle: saline 107 % of control

Cc1ccc(C(C)C)c(OC(=O)NCCCCCCNC(=O)Oc2cc(C)ccc2C(C)C)c1
inactive: [2] 93 % of control | [3] 94 % of control | [4] 98 % of control

CSc1ccc(B2Oc3cc(Cl)c(Cl)cc3O2)cc1
inactive: dose: 100.0 mg/kg/injection, schedule: Q04DX003 (ip), vehicle: alcohol 124 % of control | dose: 200.0 mg/kg/injection, schedule: Q04DX003 (ip), vehicle: alcohol 95 % of control | dose: 400.0 mg/kg/injection, schedule: Q04DX003 (ip), vehicle: alcohol 100 % of control

c1ccc2c(c1)Cc1ccccc1C2
inactive: dose: 100.0 mg/kg/injection, schedule: Q04DX002 (ip), vehicle: other 110 % of control | dose: 200.0 mg/kg/injection, schedule: Q04DX002 (ip), vehicle: other 94 % of control | dose: 400.0 mg/kg/injection, schedule: Q04DX002 (ip), vehicle: other 113 % of control

C[N+](C)(C)c1ccc(/C=C2\C=Cc3ccccc32)cc1
inactive: dose: 15.0 mg/kg/injection, schedule: Q01DX001 (ip), vehicle: carboxymethylcellulose (CMC) 108 % of control | dose: 30.0 mg/kg/injection, schedule: Q01DX001 (ip), vehicle: carboxymethylcellulose (CMC) 102 % of control

O=C(NC1CCCCC1)Oc1c(Cl)cc(Cl)c(Cl)c1[N+](=O)[O-]
inactive: dose: 25.0 mg/kg/injection, schedule: Q04DX002 (ip), vehicle: saline with Tween-80 92 % of control | dose: 50.0 mg/kg/injection, schedule: Q04DX002 (ip), vehicle: saline with Tween-80 99 % of control | [5] 99 % of control and 114 % of control

CN(C)C=Nc1ncnc2[nH]ncc12
inactive: dose: 100.0 mg/kg/injection, schedule: Q04DX003 (ip), vehicle: saline with Tween-80 107 % of control | dose: 150.0 mg/kg/injection, schedule: Q04DX003 (ip), vehicle: saline with Tween-80 107 % of control | dose: 200.0 mg/kg/injection, schedule: Q04DX003 (ip), vehicle: saline with Tween-80 123 % of control | dose: 250.0 mg/kg/injection, schedule: Q04DX003 (ip), vehicle: saline with Tween-80 123 % of control

C1=CCOCOC1
inactive: dose: 12.5 mg/kg/injection, schedule: Q01DX009 (ip), vehicle: saline with Tween-80 97 % of control | dose: 25.0 mg/kg/injection, schedule: Q01DX009 (ip), vehicle: saline with Tween-80 94 % of control | dose: 50.0 mg/kg/injection, schedule: Q01DX009 (ip), vehicle: saline with Tween-80 97 % of control | [6] 113 % of control

CCn1c(O)c(C=N)c(=O)[nH]c1=O
inactive: [7] 96 % of control | dose: 100.0 mg/kg/injection, schedule: Q04DX003 (ip), vehicle: saline 88 % of control | [8] 93 % of control | dose: 200.0 mg/kg/injection, schedule: Q04DX003 (ip), vehicle: saline 95 % of control | dose: 400.0 mg/kg/injection, schedule: Q04DX003 (ip), vehicle: saline 90 % of control

COC(=O)CC(N)C(=O)OC (centres undefined)
inactive: dose: 100.0 mg/kg/injection, schedule: Q01DX001 (ip), vehicle: saline 89 % of control | dose: 200.0 mg/kg/injection, schedule: Q01DX001 (ip), vehicle: saline 86 % of control | dose: 400.0 mg/kg/injection, schedule: Q01DX001 (ip), vehicle: saline 90 % of control

COC(=O)Nc1cccc2c1C=CC(C#N)N2C(=O)OC (centres undefined)
inactive: [2] 93 % of control | [9] 87 % of control | [3] 100 % of control | [10] 91 % of control | [11] 100 % of control

CC(C)OCCCO
inactive: [7] 87 % of control | [8] 92 % of control | dose: 400.0 mg/kg/injection, schedule: Q01DX009 (ip), vehicle: saline 97 % of control

CCCCc1ccc(OCCBr)cc1
inactive: dose: 100.0 mg/kg/injection, schedule: Q01DX009 (ip), vehicle: saline sonified 102 % of control | [9] 95 % of control | dose: 200.0 mg/kg/injection, schedule: Q01DX009 (ip), vehicle: saline sonified 98 % of control | [10] 103 % of control | dose: 400.0 mg/kg/injection, schedule: Q01DX009 (ip), vehicle: saline sonified 95 % of control | [11] 101 % of control

COC(=O)c1ccccc1NC(=O)Nc1ccc(F)cc1
inactive: [2] 90 % of control | [3] 90 % of control | [4] 90 % of control

CCCCCCCCCCCS(=O)(=O)C(CCOS(C)(=O)=O)COS(C)(=O)=O (centres undefined)
inactive: [2] 93 % of control | [9] 100 % of control | [3] 95 % of control | [10] 98 % of control | [11] 96 % of control

CCNC(=O)OCc1cc(Cl)cc(Cl)c1OC(=O)NCC
inactive: dose: 100.0 mg/kg/injection, schedule: Q01DX001 (ip), vehicle: carboxymethylcellulose (CMC) 103 % of control | dose: 200.0 mg/kg/injection, schedule: Q01DX001 (ip), vehicle: carboxymethylcellulose (CMC) 97 % of control | dose: 400.0 mg/kg/injection, schedule: Q01DX001 (ip), vehicle: carboxymethylcellulose (CMC) 106 % of control

Cc1cc(Cl)c(Cl)cc1NC(=O)c1ccc(Cl)c(Cl)c1
inactive: [6] 94 % of control and 101 % of control | dose: 200.0 mg/kg/injection, schedule: Q01DX009 (ip), vehicle: saline with Tween-80 101 % of control | dose: 400.0 mg/kg/injection, schedule: Q01DX009 (ip), vehicle: saline with Tween-80 102 % of control and 104 % of control

CC(C)(C)N(Cl)C#N
inactive: [5] 93 % of control | dose: 200.0 mg/kg/injection, schedule: Q04DX002 (ip), vehicle: saline with Tween-80 97 % of control | dose: 400.0 mg/kg/injection, schedule: Q04DX002 (ip), vehicle: saline with Tween-80 97 % of control

— PubChem BioAssay AID248 (DTP/NCI, 2004)
